Test system: Male Sprague Dawley rats
Assay: Hypocalcaemic activity in rats (total serum calcium after i.v. injection)
Type: in vivo, rat
Conditions: fasted rats, blood sampled one hour after dosing, VEHICLE 10.49 + 0.6
Experimental: The hypocalcaemic activity of compounds (I) can be determined as reported for example in J. Endocrinology, 33, 469 (1965).
Male Sprague Dawley rats, about 4 weeks old, were kept under fasting conditions for 24 hours. The compounds were dissolved with BSA buffer (0.1% bovine serum albumin on 0.1M acetate buffer pH 4.5) and injected by the i.v. route into the lateral tail vein at doses of 3-10-30-100 ng/Kg. One hour after the dosing blood was sampled from the tail or neck vessels, then the serum samples obtained.
The serum was diluted with 0.1% lanthanium chloride solution and the concentration of total calcium was determined by Atomic Absorption Spectrophotometry.

CC(C)C[C@H](NC(=O)[C@H](CCCCN)NC(=O)CNC(=O)[C@H](CC(C)C)NC(=O)[C@@H](NC(=O)[C@@H]1CC#CCCC(=O)N[C@@H](CO)C(=O)N[C@@H](CC(N)=O)C(=O)N[C@@H](CC(C)C)C(=O)N[C@@H](CO)C(=O)N[C@@H]([C@@H](C)O)C(=O)N1)C(C)C)C(=O)N[C@@H](CO)C(=O)N[C@@H](CCC(N)=O)C(=O)N[C@@H](CCC(=O)O)C(=O)N[C@@H](CC(C)C)C(=O)N[C@@H](Cc1c[nH]cn1)C(=O)N[C@@H](CCCCN)C(=O)N[C@@H](CC(C)C)C(=O)N[C@@H](CCC(N)=O)C(=O)N[C@H](C(=O)N[C@@H](Cc1ccc(O)cc1)C(=O)N1CCC[C@H]1C(=O)N[C@@H](CCCNC(=N)N)C(=O)N[C@H](C(=O)N[C@@H](C)C(=O)N[C@H](C(=O)NCC(=O)N[C@@H](C)C(=O)NCC(=O)N[C@H](C(=O)N1CCC[C@H]1C(N)=O)[C@@H](C)O)C(C)C)[C@@H](C)O)[C@@H](C)O [Example 4]
Total serum calcium; mean + S.D. (Dose 3 ng/kg i.v. (lateral tail vein)): 10.09±0.1 mg/100 ml | Total serum calcium; mean + S.D. (Dose 10 ng/kg i.v. (lateral tail vein)): 8.85±0.25 mg/100 ml | Total serum calcium; mean + S.D. (Dose 30 ng/kg i.v. (lateral tail vein)): 7.92±0.15 mg/100 ml | Total serum calcium; mean + S.D. (Dose 100 ng/kg i.v. (lateral tail vein)): 7.66±0.18 mg/100 ml

From EP0624163B1, “CYCLIC CALCITONIN DERIVATIVES AND METHOD FOR THEIR PRODUCTION” (Smithkline Beecham Farmaceutici S.p.A., priority 1992, dated 1998)
